Results taken from patent US20240269091A1, “IDEBENONE IN THE TREATMENT OF DRUG RESISTANT EPILEPSY” (Katholieke Universiteit Leuven, priority 2021, published 2024).
“Also recorded” adds a separate entry of the source.

What was measured:
[1] = molecular target: T1, human recombinant PHGDH (Homo sapiens, UniProt O43175); test: PHGDH enzyme activity, colorimetric PHGDH activity kit (absorbance at 450 nm, NADH generated)
T1 sequence (O43175 1-533): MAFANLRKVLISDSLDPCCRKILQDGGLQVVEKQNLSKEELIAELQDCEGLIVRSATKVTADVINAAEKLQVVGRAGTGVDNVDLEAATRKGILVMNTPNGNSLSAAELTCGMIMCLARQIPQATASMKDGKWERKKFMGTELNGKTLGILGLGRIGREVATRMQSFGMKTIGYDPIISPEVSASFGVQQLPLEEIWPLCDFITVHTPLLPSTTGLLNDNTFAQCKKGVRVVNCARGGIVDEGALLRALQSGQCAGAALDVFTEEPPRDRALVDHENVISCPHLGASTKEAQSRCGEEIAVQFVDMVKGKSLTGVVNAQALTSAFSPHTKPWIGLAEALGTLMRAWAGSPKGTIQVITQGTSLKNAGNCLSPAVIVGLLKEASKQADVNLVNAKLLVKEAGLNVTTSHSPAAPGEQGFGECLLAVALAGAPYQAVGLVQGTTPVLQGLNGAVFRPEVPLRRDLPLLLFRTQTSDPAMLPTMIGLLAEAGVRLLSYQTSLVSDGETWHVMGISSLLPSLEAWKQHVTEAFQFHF
Experimental: As a readout, absorbance at 450 nm, indicative for the amount of NADH generated, was measured over time.

[2] = mouse, in vivo; cited from earlier work
[3] = system: EKP-induced epileptiform activity in zebrafish; test: Zebrafish EKP-induced seizure model, LFP recordings; type: in vivo
Experimental: FIG. 3. Representative LFP recordings of zebrafish in the absence (VHC) or presence of EKP, treated with 8.5-4.3 μM idebenone or untreated (VHC), in the presence or absence of a specific PHGDH inhibitor CBR-5884 [Mullarky et al. (2016) Proc Natl Acad Sci USA 113, 1778-1783].
FIG. 4: Normalized PSD per larvae for the different conditions. Number of epileptic events within a 10-min recording (mean±SEM.). Number of recordings analysed were: VHC (n=9), EKP (n=15), 8.5 μM idebenone (Ide) (n=10), 4.3 μM idebenone (n=10), 4.3 μM idebenone+inhibitor (n=9). PHGDH-inhibitor CBR-5884 was used. Statistical differences as compared to the EKP-only treated larvae were assessed by the following statistical analysis: one-way ANOVA with Dunnett's multiple comparison test. A statistical difference is indicated by: **p<0.01, ***p<0.001 and ****p<0.0001.ns=not significant.
Common to all epilepsies, seizures occur due to an abnormal, excessive and synchronous activity of large neuronal populations. As such, seizures can be observed on electrophysiological recordings such as invasive or non-invasive local field potential (LFP) measurements, being a counterpart of electroencephalogram (EEG) performed in humans. Indeed, these techniques serve as a gold standard for epilepsy diagnosis. […]

[4] = system: EKP-induced seizures in zebrafish larvae; test: Zebrafish EKP-induced seizure model, locomotor activity tracking; type: in vivo; conditions: 8.5 μM, 2 h pre-incubation, 300 μM EKP, 7 dpf larvae, 30 min recording; ****p<0.0001
Experimental: FIG. 2. Activity profile of 8.5 μM idebenone after 300 μM EKP exposure. Locomotor activity was quantified using ZebraLab™ software (Viewpoint, Lyon, France) and expressed in mean “actinteg” units per 5-min+/−SEM during a 30 min recording interval as indicated above. Statistical analysis: one-way ANOVA with Dunnett's multiple comparison test. A statistical difference is indicated by: ****p<0.0001. For each condition n=10 larvae were used and the experiment was performed three times (n total=30 per condition).
The EKP-induced epilepsy zebrafish model is a suitable model to investigate drug resistant epilepsy. Ethyl ketopentenoate (EKP) is a lipid-permeable GAD-inhibitor that results in […] and drug resistant seizures in zebrafish [Zhang et al. (2017) Sci Rep. 7, 7195]. […]
Larvae (7dpf) in 100 μl VHC were arrayed individually in a 96-well plate (tissue culture plate, at bottom, Falcon, USA) and kept in the light at 28° C. […] The plates were placed in an automated video tracking device (ZebraBox™ apparatus; Viewpoint, Lyon, France) and the locomotor behaviour of the larvae was monitored for […] in the dark at 28° C. Locomotor activity was quantified using ZebraLab™ software (Viewpoint, Lyon, France) and expressed in “actinteg” units per 5-min interval. […] The actinteg value is defined as the sum of all image pixel changes detected during the time window.

[5] = system: Arginase 1 expression (microglia/macrophage M2 marker); test: Temporal lobe epilepsy model (SSSE), Arginase-1 expression by real-time quantitative PCR of brain tissue; type: in vivo, C57bl/6 mice; conditions: 100 mg/kg twice daily i.p. for one week, vs vehicle control; p=0.017; two-way ANOVA (FIG. 5)
Experimental: The present example investigates whether Idebenone has the potential to modulate neuroinflammation from an M1 to M2 phenotype. […] (control animals received vehicle injections for one week). Idebenone was suspended in 5% dimethyl sulfoxide and 20% Kolliphor RH40 in 0.01M PBS. Expression of the major marker for M2 polarization, Arginase-1, was assessed via real-time quantitative PCR upon brain tissue processing. Two-way ANOVA analysis was performed to evaluate the effect of two factors including the treatment and the SSSE [self-sustained Electrical Status Epilepticus], and any interaction of the two factors.

[6] = system: pilocarpine-induced seizures; conditions: rats, preventive treatment 3 days prior to pilocarpine injection; Ahmed (2014); cited from earlier work
[7] = system: EKP-induced epileptiform activity in zebrafish; conditions: 1 μM; Zhang et al. (2017); cited from earlier work

## COC1=C(OC)C(=O)C(CCCCCCCCCCO)=C(C)C1=O [Idebenone, 6-(10-hydroxydecyl)-2,3-dimethoxy-5-methyl-1,4-benzoquinone]
[1]
  effect on the oxido-reduction reaction toward NADH generation (compound itself): does not affect the oxido-reduction reaction toward NADH generation
[1]; 25 µM idebenone, over time, DMSO 0.5% (FIG. 1)
  PHGDH enzyme activity: induces increased enzyme activity of PHGDH
[2]
  LD50: exceeds 10,000 mg/kg
[3]; 8.5-4.3 μM, 10-min recording
  EKP-induced epileptiform activity, LFP recordings: significantly reduced EKP-induced epileptiform activity
[4]
  EKP-induced seizures assessed as locomotor movement (actinteg units per 5-min): significantly reduced EKP-induced seizures
[5]
  expression of M2 marker Arginase 1: increases the expression; also recorded: significant increase
[6]
  neuroprotection in pilocarpine-induced seizure model: provides neuroprotection

## N#Cc1ccccc1-c1cc(-c2ccccn2)cn(-c2ccccc2)c1=O [Perampanel]
[7]
  anti-seizure activity in the EKP model: anti-seizure activity

## CBR-5884
[1]; co-administration with idebenone
  blocking of idebenone-induced increased PHGDH activity: can be blocked by co-administration
[3]; co-administration with idebenone (4.3 μM)
  blocking of the anti-seizure activity of idebenone: could be blocked by co-administration
